Experimental findings from patent US9707202B2, “Certain chemical entities, compositions, and methods” (NEUPHARMA, INC., priority 2011, dated 2017) are described below.

In brackets after ≈: the same amount, converted by molar mass.

The nature of series [1]: Equilibrium solubility in aqueous buffer. Format: physicochemical. Particulars: thermodynamic from solid, NaOAc/AcOH buffer (100 mM, pH 5.0), shaken at rt for 24 h, HPLC UV. Here is the method:
The equilibrium solubility of compounds was measured in aqueous buffer. Excess amount of solid compound was added into buffer solution and the sample was briefly sonicated and then shaken at rt for 24 h. The sample was filtered and the concentration was analyzed by HPLC UV. A standard solution at 0.2 mg/mL was prepared in methanol or acetonitrile for each compound and used as an external standard for quantification.

The subject of another series is A549 cells. The series is described as follows: Inhibition of cell growth in tumor cells (MTT assay). Format: cell-based. Particulars: Homo sapiens, 72 h compound exposure. Here is the method:
Inhibition of cell growth by compounds was measured using MTT assay (Mosmann, T., Journal of Immunological Methods, 1983, 65, 55-63). Tumor cell lines were purchased from ATCC (American Type Culture Collection, Manassas, Va.). All cell lines were maintained in RPMI 1640 (Hyclone) supplemented with 10% fetal bovine serum (FBS, Hyclone), glutamine (2 mM, Hyclone), and antibiotics (penicillin 100 U/mL and streptomycin 50 µg/mL) at 37° C. in a humidified atmosphere of 5% CO2 in air. Taxol (positive control, Sigma) and compounds were dissolved in DMSO (Sigma), and the final concentration of DMSO in the medium was 1%. Tumor cells were plated in 96-well plates at densities from 4000 cells/well of a 96-well plate and allowed to adhere/grow for 24 h. They were then treated with various concentrations of drug for 72 h. 3-(4,5-Dimethylthiazol-2-yl)-2,5-diphenyltetrazolium bromide (MTT, Sigma) was used to determine the number of viable cells at the time of compound addition and the number of cells remaining after 72 h compound exposure. The number of cells remaining after 72 h was compared to the number of viable cells at the time of compound addition by measuring the absorbance at 570 nm, allowing for the calculation of growth inhibition.
All concentrations of compounds were tested in triplicate and controls were averaged over 4 wells. IC50 was calculated by plotting the concentration of compound vs the percentage of inhibition in treated wells using GraphPad Prism 5.
Background: Tetrazolium dyes change colour on reduction, which living cells bring about.

What is called solubility is the dissolved amount per volume that the medium holds. A lower solubility goes with little dissolved substance. The IC50 is the concentration that gives 50% inhibition. Lower therefore signals inhibition by little substance. Take `COc1ccc(/C=C/C(=O)CC(=O)/C=C/c2ccc(OC(=O)N3CCN(C)CC3)c(OC)c2)cc1OC` [4-((1E,6E)-7-(3,4-dimethoxyphenyl)-3,5-dioxohepta-1,6-dien-1-yl)-2-methoxyphenyl 4-methylpiperazine-1-carboxylate]: in series [1], the solubility at 24 h is 320 µg/mL (≈ 629 µM). Also, the IC50 in the series on A549 cells worked out at 4.3 µM.
As to `COc1ccc(/C=C/C(=O)CC(=O)/C=C/c2ccc(OC(=O)N(C)C)c(OC)c2)cc1OC` [4-((1E,6E)-7-(3,4-dimethoxyphenyl)-3,5-dioxohepta-1,6-dien-1-yl)-2-methoxyphenyl dimethylcarbamate], the IC50 in the series on A549 cells is 10.6 µM.
On the same count and under the same terms, as for `COc1ccc(/C=C/C(=O)CC(=O)/C=C/c2ccc(OC(=O)N3CCOCC3)c(OC)c2)cc1OC` [4-((1E,6E)-7-(3,4-dimethoxyphenyl)-3,5-dioxohepta-1,6-dien-1-yl)-2-methoxyphenyl morpholine-4-carboxylate], the figure is 4.6 µM.
On the same count and under the same terms, as for `COc1cc(/C=C/C(=O)CC(=O)/C=C/c2ccc(OC(=O)N(C)C)c(OC)c2)ccc1OCCO` [4-((1E,6E)-7-(4-(2-hydroxyethoxy)-3-methoxyphenyl)-3,5-dioxohepta-1,6-dien-1-yl)-2-methoxyphenyl dimethylcarbamate], the figure is 9.1 µM.
Still for that read-out and setting: then `COc1cc(/C=C/C(=O)CC(=O)/C=C/c2ccc(OC(=O)N3CCCCC3)c(OC)c2)ccc1OCCO` [4-((1E,6E)-7-(4-(2-hydroxyethoxy)-3-methoxyphenyl)-3,5-dioxohepta-1,6-dien-1-yl)-2-methoxyphenyl piperidine-1-carboxylate], with 10.9 µM.
As for `COc1cc(/C=C/C(=O)CC(=O)/C=C/c2ccc(OC(=O)N3CCN(C)CC3)c(OC)c2)ccc1O` [4-((1E,6E)-7-(4-hydroxy-3-methoxyphenyl)-3,5-dioxohepta-1,6-dien-1-yl)-2-methoxyphenyl 4-methylpiperazine-1-carboxylate], the solubility at 24 h in series [1] amounted to 18 µg/mL (≈ 36.4 µM). Also, 3.8 µM corresponded to half-maximal inhibition with A549 cells (IC50).
For the compound `COc1cc(/C=C/C(=O)CC(=O)/C=C/c2ccc(OC(=O)N(C)C)c(OC)c2)ccc1O` [4-((1E,6E)-7-(4-hydroxy-3-methoxyphenyl)-3,5-dioxohepta-1,6-dien-1-yl)-2-methoxyphenyl dimethylcarbamate], in the series on A549 cells, half-maximal inhibition (IC50) was put at 2.3 µM.
Compound `COc1cc(/C=C/C(=O)CC(=O)/C=C/c2ccc(OC(=O)N3CCOCC3)c(OC)c2)ccc1O` [4-((1E,6E)-7-(4-hydroxy-3-methoxyphenyl)-3,5-dioxohepta-1,6-dien-1-yl)-2-methoxyphenyl morpholine-4-carboxylate] showed an IC50 in the series with A549 cells of 7.2 µM.
In the case of `COc1cc(/C=C/C(=O)CC(=O)/C=C/c2ccc(OC(=O)N3CCNCC3)c(OC)c2)ccc1O` [4-((1E,6E)-7-(4-hydroxy-3-methoxyphenyl)-3,5-dioxohepta-1,6-dien-1-yl)-2-methoxyphenyl piperazine-1-carboxylate], the solubility at 24 h in series [1] amounted to 1390 µg/mL (≈ 2890 µM). Moreover, in the series with A549 cells, 9.2 µM corresponded to half-maximal inhibition (IC50).
As for `COc1cc(/C=C/C(=O)CC(=O)/C=C/c2ccc(OC(=O)N3CCCCC3)c(OC)c2)ccc1O` [4-((1E,6E)-7-(4-hydroxy-3-methoxyphenyl)-3,5-dioxohepta-1,6-dien-1-yl)-2-methoxyphenyl piperidine-1-carboxylate], the IC50 in the series with A549 cells turned out to be 8 µM. In other words, the single-digit micromolar range.
Compound `COc1cc(/C=C/C(=O)CC(=O)/C=C/c2ccc(O)c(OC)c2)ccc1O` [Curcumin, reference compound] showed a solubility at 24 h in series [1] (aqueous buffer (NaOAc/AcOH)) of less than 1 µg/mL. The same compound registered an IC50 with A549 cells greater than 30 µM.
